Test results from US10519423B1, “High efficiency reprogramming of fibroblasts into cardiomyocytes” (The Regents of the University of Colorado, a body corporate, priority 2015, dated 2019).

Assays:
[1] = system: mice following ischemia/reperfusion injury; conditions: cited from earlier work
MEFs [2] = experiment: Immunocytochemistry for cTnT and α-actinin in infected MEFs; format: cell-based, mouse
Description: (§1) Fibroblasts were plated on tissue culture dishes pre-coated with SureCoat (Cellutron) at a density of ˜40 cells/mm^2 before transduction. The fibroblast growth medium was replaced with freshly made viral mixture containing polybrene (Sigma). Twenty-four hours later, fibroblasts were infected again with viral mixture containing polybrene. Twenty fours later, the viral medium was replaced with induction medium, composed of DMEM/199 (4:1) (Gibco), 10% FBS (Gemini), 5% horse serum(Gemini), antibiotics (Gibco), 1× non-essential amino acids (Gibco), 1× essential amino acids (Gibco), 1× B-27 (Gibco), 1× insulin-selenium-transferin (Gibco), 1× vitamin mixture (Gibco), and 1× sodium pyruvate (Gibco). Medium was changed every two-three days until cells were examined.
(§2) Cells were fixed in 2% PFA for 15 min on ice then washed with DPBS (Gibco) three times at RT. The cells were permeabilized in 0.5% Triton X-100 (made in PBS) for 20 min at RT. After washing the cells with DPBS (Gibco), cells were incubated with the primary antibody against α-actinin (Sigma A7811, 1:300), Connexin 43 (Sigma, C6219, 1:500), Troponin T (Thermo Scientific MS-245-P, 1:500), α-SMA (Santa Cruz Biotechnology, SC-32251, 1:800), Myl2 (Proteintech, 10906-1-AP, 1:200), or Myl7 (Proteintech, 17283-1-AP, 1:200) in 10% FBS(Gemini) in DPBS for 1 hour at RT. Cells were wash with DPBS three times, 5 min each. Cell were incubated with the secondary antibody (Alexa Fluor 555 Molecular Probes A21422, 1:1000) and Hoechest (Molecular Probes 33342, 1:5000) for 30 mins at RT.

MEFs [3] = experiment: qPCR of cardiac genes in reprogramming MEFs; format: cell-based, mouse
Description: (§3) Cells were harvested in TRizol reagent (Ambion) for RNA isolation. RNA was extracted with the RNeasy® Plus Universal Mini Kit (Qiagen). RT-PCR was performed using the Superscript III first-strand synthesis system (Invitrogen). qPCR was performed using the SYBR® Green PCR master mix (Applied Biosystems) or StepOne™ Real-Time PCR Systems (Applied Biosystems). Primers are listed in Supplementary Table 1. Ryr2 (Mm00465877_m1) and Myh7 (Mm01319006_91) are Taqman probes (Life technologies).

MEFs [4] = experiment: Counting of spontaneously beating cells in infected MEFs; format: cell-based, mouse; conditions: for spontaneously beating cells induced by GHMT2m in the presence of inhibitor: GHMT2m-MEFs treated 7 days, counted at day 9, Thiazovivin 2.5 μM, SR-3677 5 μM, GW788388 3 μM, LY-364947 1.5 μM, SD-208 1 μM
Description: as §1
Cells in 60 mm dishes were examined under an EVOS® FL Color imaging system (Life Technologies) at 25° C. Beating cells were counted at a field with an area of 0.89 mm^2. Ten to fifteen fields in each dish were randomly chosen.

MEFs [5] = experiment: Pro-fibrotic marker expression in infected MEFs (qPCR, Western blot, αSMA stress fiber immunostaining); format: cell-based, mouse
Description: as §3
Samples were placed on ice and washed with ice-cold DPBS (Gibco) twice, then ice-cold lysis buffer (150 mM NaCl, 50 mM Tris-Cl pH7.4, 1 mM EDTA, 1% Triton, Complete mini tablet (Roche), 1 mM PMSF freshly added before use) was added to the cells. Cells were scraped and transferred to a pre-chilled 1.5 Eppendorf tube and frozen in liquid N2. Before used, the lysate was thawed on ice. The lysate was passed carefully through a 25 g needle for 5 times and then centrifuge at 14,000 rpm for 15 minutes at 4° C. The supernatant was transferred to a new 1.5 ml tube. The protein concentration was measured and 20 ug of lysate for each sample was loaded to SDSPAGE. Proteins were then transferred to PVDF. The PDVF membrane was blocked in 2.5% BSA in 1×TBST for 30 mins at room temperature (RT). The primary antibody was added in blocking buffer for 60 mins at RT. Wash in 1×TBST (20 mM Tris-Cl, pH7.4; 150 mM NaCl; 0.1% Tween20) three times at RT, each for 15 mins. The Secondary antibody was added in blocking buffer for 45 mins at RT. The membrane was washed in 1 XTBST for 15 mins, 1×TBST for 5 mins, then TBS (10 mM Tris-Cl pH8, 150 mM NaCl) for 5 mins. The membrane was resolved with Super Signal® West Pico (34080) or Femto (34095) substrate (Thermo Scientfic). The primary antibodies include: Snail (Cell Signaling, 3879S, 1:1000), Slug (Cell Signaling, 9585S, 1:1000), P-Smad2 (Cell Signaling, 23108P, 1:1000), Smad2 (Cell Signaling, 5339, 1:1000), αSMA (Santa Cruz, SC-32251, 1:10000), cTn1 (Phospho Solutions, 2010-TNI, 1:1000), cTnT (Sigma, T6277, 1:1000), and GAPDH (Ambion, AM4300). The secondary antibodies include: Goat Anti-Mouse IgG (H+L) (Southern Biotech, 1031-05, 1:2000). Goat Anti-Rabbit IgG (Life Technologies, 65-6120, 1:2000). For separation of α- and β-myosin heavy chain, samples were run by modified 6% SDS-PAGE (separating acrylamide/bis ratio 1:100; resolving gel buffer pH 9.0; running gel buffer pH 8.2; β-mercaptoethanol 600 μl/l inner gel buffer). Gels were run overnight at 4° C. and stained with BioSafe Coomassie Blue protein stain.
as §2

MEFs [6] = experiment: Intracellular staining for flow cytometry (cTnT, Myc) in retrovirus-infected MEFs; format: cell-based, mouse; conditions: GHMT-infected MEFs, day 7; alone or treated with TGF-β1 (10 ng/ml) or A83-01 (0.5 μM, day 3 to day 7)
Description: C57BL6 pregnant mice at E13 were order from Charles River's laboratory. Embryos at E14.5 were harvested and their internal organs and head were removed. The body below the liver was minced using blade to fine pieces. Minced embryos were incubated with 2 ml of 0.25% trypsinIl mM EDTA, Phenol Red (Gibco) for 40 mins at 37° C. with 5% CO2. Cells were suspended in 25 ml of growth medium (DMEM/Hi glucose (Hyclone) 10% FBS (Gemini), 1.1% Penicillin-Streptomycin (Gibco) and 1.1% GlutaMAX supplement (Gibco)) and then plated on a 15 cm dish. In 24 hours, the media was aspirated and new 25 ml of growth medium was added. In 72 hours, MEFs were harvested and stored for future use.
as §1
Adherent fibroblasts were washed with DPBS (Gibco). Cells were detached from culture dish by treatment with 0.25% Trypsin/EDTA (Gibco) for 3 min at 37° C. Cells were then washed with 4 ml of 5% FBS (Gemini) in DPBS filtered through a cell strainer and centrifuge at 1200 rpm×6 mins. Cells were washed with 500 ul of 1% BSA in DPBS. Cells were fixed with BD Cytofix/Cytoperm™ solution in 0.2 ml/1 million cells in 1.5 ml eppendorf tube for 20 min on ice. Cells were washed with 1 ml of BD perm/wash buffer and Centrifuged for 6 min at 1200 rpm. The supernatant was discarded; cells were washed again with 1 ml of BD Perm/wash buffer and left overnight at 4° C. The next day, Cells were centrifuged for 6 min at 1200 rpm, the supernatant discarded and 100 μl of Blocking buffer made with 5% goat, donkey serum (Sigma: G9023 and D9663) in Perm/wash buffer was added to the cells and incubated for 30 min at RT. A primary antibody: Mouse Troponin T (cTnT) antibody (Thermo Scientific, ms-295-p, 1:200), mouse anti-C-Myc antibody (BD Pharmingen, 551102, 1:200) in 100 μl BD Perm/Wash buffer was added to the cells and incubated for 1 hr at RT. One ml cold BD Perm/wash buffer was added to the cells and centrifuged for 6 min at 1200 rpm. […] Cells were re-suspended in 300 ul of 1% BSA/DPBS and then analyzed using FACS Caliber (BD Sciences) and FlowJo software.

iCMs = experiment: Spontaneous calcium transients in Fura-2 AM-loaded iCMs; format: cell-based, mouse; set-up: dose or concentration left out as unconfirmed; conditions: iCMs on days 10-12, isoproterenol
Text: To determine whether iCMs were developing functional excitation-contraction (EC) coupling, we imaged spontaneous calcium transients from Fura-2 AM-loaded iCMs. Spontaneous calcium transients were detected in spontaneously beating cells on days 10-12 (FIGS. 68-71). […] To determine whether iCMs are able to appropriately respond to hormone stimulation, a critical function of normal cardiomyocytes, we measured calcium transients in response to the b-adrenergic agonist isoproterenol (Iso).

rats following MI = conditions: cited from earlier work
[7] = GFP-, GHMT- and GHMT2m-infected cultures, day 7

C[C@@H](N)[C@H]1CC[C@H](C(=O)Nc2ccncc2)CC1 [Y-27632]
infarct size and remodeling [1]: decreased infarct size and remodeling | assembly of myocyte sarcomeres (MEFs [2]; infected MEFs treated with Y-27632 (30 μM), day 14): enhanced | cardiomyocyte-specific gene expression (MEFs [3]; reprogramming MEFs treated with Y-27632 for 5 days, day 7): enhanced | beating cell population (MEFs [4]; GHMT2m cultures of MEFs, by day 12, without or with Y-27632 (30 μM)): ~30% | increase of the number of beating cells (MEFs [4]; GHMT-infected MEFs, Y-27632 30 μM, by 4 weeks): 7 fold | time by which cells started to beat (MEFs [4]; MEFs, GHMT2m alone, or GHMT-infected cultures treated with Y-27632 (30 μM) or A83-01 (0.5 μM)): ≤ 12 days | Snail and Slug expression (MEFs [5]; [7]): did not change | expression of Fn-EDA and αSMA (MEFs [5]; [7]): decreased | inhibition of expression of pro-fibrotic markers, comparison of inhibitors (MEFs [5]; reprogramming MEFs): inhibited expression of pro-fibrotic markers less efficiently than A83-01

O=C(NCc1ccccc1)c1csc(Nc2ccncn2)n1 [Thiazovivin]
spontaneously beating cells induced by GHMT2m in the presence of inhibitor (MEFs [4]): enhanced cardiac reprogramming and promoted formation of spontaneously beating cells

Fc1ccc(Cl)cc1-c1nc(Nc2ccncc2)c2nccnc2n1 [SD-208]
spontaneously beating cells induced by GHMT2m in the presence of inhibitor (MEFs [4]): enhanced cardiac reprogramming by inducing more spontaneously beating cells

CN(C)CCOc1cc(-c2cn[nH]c2)ccc1NC(=O)C1COc2ccccc2O1 (stereo not shown) [SR-3677]
spontaneously beating cells induced by GHMT2m in the presence of inhibitor (MEFs [4]): enhanced cardiac reprogramming and promoted formation of spontaneously beating cells

TGF-β1: Recombinant Mouse TGF-beta 1 (R&D Systems 7666-MB-005), pro-fibrotic stimulus
fraction of cTnT+ cells (MEFs [2]; GHMT2m-cultures treated with TGF-β1, day 7 and day 14): did not significantly decrease | cTnT+ and α-actinin+ populations (MEFs [2]; GHMT-infected MEFs treated with TGF-β1, day 14): significantly reduced | expression of other cardiomyocyte markers, including α-actinin, Myh6 and Actc1 (MEFs [3]; GHMT2m-cultures treated with TGF-β1): significantly down-regulated | cardiac gene expression (MEFs [3]; GHMT-infected cultures treated with TGF-β1 for 4 days): significantly reduced | cTnThigh fraction (MEFs [6]): approximately 19% | decrease of beating cells (MEFs [4]; GHMT2m-infected MEFs treated with TGF-β1, by one month): 100 fold | effect on beating cells (MEFs [4]; GHMT-infected MEFs treated with TGF-β1, by one month): completely abolished | profibrotic gene Col1a1 expression (MEFs [5]; GHMT2m-fibroblasts treated with TGF-β1): enhanced | amount of phospho-Smad2, expression of Fn-EDA and Col1a1, formation of αSMA stress fibers (MEFs [5]; GHMT-infected cultures at day 7, TGF-β1 10 ng/ml, compared to non-treated): increased

c1ccc(-c2[nH]ncc2-c2ccnc3ccccc23)nc1 [LY-364947]
spontaneously beating cells induced by GHMT2m in the presence of inhibitor (MEFs [4]): enhanced cardiac reprogramming by inducing more spontaneously beating cells

CC(C)NCC(O)c1ccc(O)c(O)c1 (stereo not shown) [Iso, isoproterenol]
frequency of cell contraction and spontaneous calcium transients (iCMs): significantly increased

O=C(NC1CCOCC1)c1ccc(-c2cc(-c3c[nH]nc3-c3ccccn3)ccn2)cc1 [GW788388]
spontaneously beating cells induced by GHMT2m in the presence of inhibitor (MEFs [4]): enhanced cardiac reprogramming by inducing more spontaneously beating cells | TGF-β activity, cardiac fibrosis, ventricular remodeling, systolic dysfunction (rats following MI): significantly decreased TGF-β activity, cardiac fibrosis and ventricular remodeling with attenuation of systolic dysfunction
